Measurements: ChEMBL document CHEMBL3046894, “Synthesis and Herbicidal Activity of Pyrimidinyl Salicylic and Thiosalicylic Acids” (J Pestic Sci, 1996)
Activity calls are given as the source filed them. The rule behind the calls is not given here.

Columns and labels:
Gossypium hirsutum [1] = assay: Post-emergence phytotoxicity against Gossypium hirsutum (cotton) assessed as mortality per 10 acre; assay type: organism-based; settings: in vivo
Echinochloa crus-galli [2] = assay: Pre-emergence herbicidal activity against Echinochloa crus-galli (barnyard grass) assessed as mortality at 6.3 g a.i/10 a; assay type: functional; settings: Echinochloa crus-galli, pre-emergence
Xanthium strumarium [3] = assay: Post-emergence herbicidal activity against Xanthium strumarium (cocklebur) assessed as mortality at 6.3 g a.i/10 a applied 11 days after germination as foliar spray; assay type: functional; settings: 264 h
Ipomoea lacunosa [4] = assay: Post-emergence herbicidal activity against Ipomoea lacunosa assessed as mortality at 1.6 g a.i/10 a applied 11 days after germination as foliar spray; assay type: functional; settings: 264 h
Ipomoea lacunosa [5] = assay: Post-emergence herbicidal activity against Ipomoea lacunosa assessed as mortality at 6.3 g a.i/10 a applied 11 days after germination as foliar spray; assay type: functional; settings: 264 h
Abutilon theophrasti [6] = assay: Post-emergence herbicidal activity against Abutilon theophrasti (velvetleaf) assessed as mortality at 1.6 g a.i/10 a applied 11 days after germination as foliar spray; assay type: functional; settings: 264 h
Abutilon theophrasti [7] = assay: Post-emergence herbicidal activity against Abutilon theophrasti (velvetleaf) assessed as mortality at 6.3 g a.i/10 a applied 11 days after germination as foliar spray; assay type: functional; settings: 264 h
Gossypium hirsutum [8] = assay: Pre-emergence phytotoxicity against Gossypium hirsutum (cotton) assessed as mortality at 6.3 g a.i/10 a; assay type: organism-based; settings: in vivo, other
Gossypium hirsutum [9] = assay: Pre-emergence phytotoxicity against Gossypium hirsutum (cotton) assessed as mortality at 1.6 g a.i/10 a; assay type: organism-based; settings: in vivo, other
Glycine max = assay: Pre-emergence phytotoxicity against Glycine max (soybean) assessed as mortality at 1.6 g a.i/10 a; assay type: organism-based; settings: in vivo, other
[10] = Pre-emergence phytotoxicity against Glycine max (soybean) assessed as mortality at 6.3 g a.i/10 a; assay type: organism-based; settings: in vivo, 6.3 g a.i/10 a, read-out: mortality
[11] = Pre-emergence phytotoxicity against Zea mays (maize) assessed as mortality at 1.6 g a.i/10 a; assay type: organism-based; settings: in vivo, 1.6 g a.i/10 a, read-out: mortality
Gossypium hirsutum [12] = assay: Post-emergence phytotoxicity against Gossypium hirsutum (cotton) assessed as mortality at 1.6 g a.i/10 a applied 11 days after germination as foliar spray; assay type: organism-based; settings: in vivo, other, 264 h
Gossypium hirsutum [13] = assay: Post-emergence phytotoxicity against Gossypium hirsutum (cotton) assessed as mortality at 6.3 g a.i/10 a applied 11 days after germination as foliar spray; assay type: organism-based; settings: in vivo, other, 264 h
[14] = Post-emergence phytotoxicity against Glycine max (soybean) assessed as mortality at 1.6 g a.i/10 a applied 11 days after germination as foliar spray; assay type: organism-based; settings: in vivo, 1.6 g a.i/10 a
[15] = Post-emergence phytotoxicity against Zea mays (maize) assessed as mortality at 1.6 g a.i/10 a applied 11 days after germination as foliar spray; assay type: organism-based; settings: in vivo, 1.6 g a.i/10 a
Echinochloa crus-galli [16] = assay: Post-emergence herbicidal activity against Echinochloa crus-galli (barnyard grass) assessed as mortality at 6.3 g a.i/10 a applied 11 days after germination as foliar spray; assay type: functional; settings: 264 h
Cyperus iria [17] = assay: Pre-emergence herbicidal activity against Cyperus iria assessed as growth inhibition at 25 g a.i/10 a; assay type: functional, organism-based
Chenopodium album [18] = assay: Pre-emergence herbicidal activity against Chenopodium album assessed as growth inhibition at 25 g a.i/10 a; assay type: functional, organism-based
Amaranthus retroflexus [19] = assay: Pre-emergence herbicidal activity against Amaranthus retroflexus assessed as growth inhibition at 25 g a.i/10 a; assay type: functional, organism-based
Persicaria nodosa [20] = assay: Pre-emergence herbicidal activity against Persicaria nodosa assessed as growth inhibition at 25 g a.i/10 a; assay type: functional, organism-based
Digitaria sanguinalis [21] = assay: Pre-emergence herbicidal activity against Digitaria sanguinalis (hairy crabgrass) assessed as growth inhibition at 25 g a.i/10 a; assay type: functional, organism-based
Echinochloa crus-galli [22] = assay: Pre-emergence herbicidal activity against Echinochloa crus-galli (barnyard grass) assessed as growth inhibition at 25 g a.i/10 a; assay type: functional, organism-based
Cyperus iria [23] = assay: Post-emergence herbicidal activity against Cyperus iria assessed as growth inhibition at 25 g a.i/10 a applied 11 days after germination as foliar spray; assay type: functional, organism-based
Chenopodium album [24] = assay: Post-emergence herbicidal activity against Chenopodium album assessed as growth inhibition at 25 g a.i/10 a applied 11 days after germination as foliar spray; assay type: functional, organism-based
Amaranthus retroflexus [25] = assay: Post-emergence herbicidal activity against Amaranthus retroflexus assessed as growth inhibition at 25 g a.i/10 a applied 11 days after germination as foliar spray; assay type: functional, organism-based
Persicaria nodosa [26] = assay: Post-emergence herbicidal activity against Persicaria nodosa assessed as growth inhibition at 25 g a.i/10 a applied 11 days after germination as foliar spray; assay type: functional, organism-based
Digitaria sanguinalis [27] = assay: Post-emergence herbicidal activity against Digitaria sanguinalis (hairy crabgrass) assessed as growth inhibition at 25 g a.i/10 a applied 11 days after germination as foliar spray; assay type: functional, organism-based
Echinochloa crus-galli [28] = assay: Post-emergence herbicidal activity against Echinochloa crus-galli (barnyard grass) assessed as growth inhibition at 25 g a.i/10 a applied 11 days after germination as foliar spray; assay type: functional, organism-based
Ipomoea lacunosa [29] = assay: Pre-emergence herbicidal activity against Ipomoea lacunosa assessed as mortality per 10 acre; assay type: functional
Persicaria nodosa [30] = assay: Pre-emergence herbicidal activity against Persicaria nodosa assessed as mortality per 10 acre; assay type: functional
Amaranthus retroflexus [31] = assay: Pre-emergence herbicidal activity against Amaranthus retroflexus assessed as mortality per 10 acre; assay type: functional
Echinochloa crus-galli [32] = assay: Pre-emergence herbicidal activity against Echinochloa crus-galli (barnyard grass) assessed as mortality per 10 acre; assay type: functional
Gossypium hirsutum [33] = assay: Pre-emergence phytotoxicity against Gossypium hirsutum (cotton) assessed as mortality per 10 acre; assay type: organism-based; settings: in vivo
Xanthium strumarium [34] = assay: Post-emergence herbicidal activity against Xanthium strumarium (cocklebur) assessed as mortality per 10 acre; assay type: functional
Ipomoea lacunosa [35] = assay: Post-emergence herbicidal activity against Ipomoea lacunosa assessed as mortality per 10 acre; assay type: functional
Persicaria nodosa [36] = assay: Post-emergence herbicidal activity against Persicaria nodosa assessed as mortality per 10 acre; assay type: functional
Amaranthus retroflexus [37] = assay: Post-emergence herbicidal activity against Amaranthus retroflexus assessed as mortality per 10 acre; assay type: functional
Echinochloa crus-galli [38] = assay: Post-emergence herbicidal activity against Echinochloa crus-galli (barnyard grass) assessed as mortality per 10 acre; assay type: functional
Ipomoea lacunosa [39] = assay: Pre-emergence herbicidal activity against Ipomoea lacunosa assessed as mortality at 1.6 g a.i/10 a; assay type: functional; settings: Ipomoea lacunosa, pre-emergence
Xanthium strumarium [40] = assay: Pre-emergence herbicidal activity against Xanthium strumarium (cocklebur) assessed as mortality per 10 acre; assay type: functional
Abutilon theophrasti [41] = assay: Pre-emergence herbicidal activity against Abutilon theophrasti (velvetleaf) assessed as mortality at 6.3 g a.i/10 a; assay type: functional; settings: Abutilon theophrasti, pre-emergence

Molecule `COc1cc(OC)nc(Oc2cccc(Br)c2C(=O)O)n1` has an ED20 (Gossypium hirsutum [1]) of 0.2 gAi, a mortality at 63 g/ha (Echinochloa crus-galli [2]) greater than 90% and a mortality at 63 g/ha (Xanthium strumarium [3]) greater than 90%. The mortality at 16 g/ha (Ipomoea lacunosa [4]) was greater than 90%, the mortality at 63 g/ha (Ipomoea lacunosa [5]) was greater than 90% and the mortality at 16 g/ha (Abutilon theophrasti [6]) was greater than 90%. The mortality at 63 g/ha (Abutilon theophrasti [7]) was greater than 90%, the Activity (Gossypium hirsutum [8]) was “Non-toxic” and the Activity (Gossypium hirsutum [9]) was “Non-toxic”. The Activity (Glycine max) was “Toxic”, the mortality [10] was greater than 90% and the mortality [11] was greater than 90%. For the same molecule, the Activity (Gossypium hirsutum [12]) was “Toxic”, the Activity (Gossypium hirsutum [13]) was “Toxic” and the mortality at 264 h [14] was greater than 90%. For the same molecule, the mortality at 264 h [15] was greater than 90%, the mortality at 63 g/ha (Echinochloa crus-galli [16]) was greater than 90% and the “growth inhibition (GI)” value (Cyperus iria [17]) was “Active”. For the same molecule, the “growth inhibition (GI)” value (Chenopodium album [18]) was “Active”, the “growth inhibition (GI)” value (Amaranthus retroflexus [19]) was “Active” and the “growth inhibition (GI)” value (Persicaria nodosa [20]) was “Active”. For the same molecule, the “growth inhibition (GI)” value (Digitaria sanguinalis [21]) was “Active”, the “growth inhibition (GI)” value (Echinochloa crus-galli [22]) was “Active” and the “growth inhibition (GI)” value (Cyperus iria [23]) was “Active”. The “growth inhibition (GI)” value (Chenopodium album [24]) was “Active”, the “growth inhibition (GI)” value (Amaranthus retroflexus [25]) was “Active” and the “growth inhibition (GI)” value (Persicaria nodosa [26]) was “Active”. For the same molecule, the “growth inhibition (GI)” value (Digitaria sanguinalis [27]) was “Active”, the “growth inhibition (GI)” value (Echinochloa crus-galli [28]) was “Active” and the ED90 (Ipomoea lacunosa [29]) was 25 gAi. It also gave an ED90 (Persicaria nodosa [30]) of 0.4 gAi, an ED90 (Amaranthus retroflexus [31]) of 0.4 gAi and an ED90 (Echinochloa crus-galli [32]) of 1.5 gAi. For the same molecule, the ED20 (Gossypium hirsutum [33]) was “Toxic”, the ED90 (Xanthium strumarium [34]) was 1.5 gAi and the ED90 (Ipomoea lacunosa [35]) was 0.8 gAi. For the same molecule, the ED90 (Persicaria nodosa [36]) was 0.2 gAi, the ED90 (Amaranthus retroflexus [37]) was 0.2 gAi and the ED90 (Echinochloa crus-galli [38]) was “inactive”. The mortality at 16 g/ha (Ipomoea lacunosa [39]) was less than 5%, the ED90 (Xanthium strumarium [40]) was 25 gAi and the mortality at 63 g/ha (Abutilon theophrasti [41]) was greater than 90%.
